# From article PMC9375364, “Fabrication of multifunctional metal–organic frameworks nanoparticles via layer-by-layer self-assembly to efficiently discover PSD95-nNOS uncouplers for stroke treatment” (Journal of Nanobiotechnology, 2022)
# Target: T1, PSD95-nNOS (GFP-PSD95 coupled to His-nNOS on magnetic Fe-MOF) (Rattus norvegicus (nNOS); Homo sapiens (PSD95), UniProt P29476+P78352)
# T1 construct: gene Nos1; two-species complex; myc-His-nNOS (pcDNA3.1) and GFP-PSD95-Flag (pcDNA3.1), total synthesized genes, expressed in HEK293T, from RIPA lysates; His-nNOS immobilized on magnetic Fe-MOF, then GFP-PSD95 coupled
# T1 sequence (P29476 whole entry): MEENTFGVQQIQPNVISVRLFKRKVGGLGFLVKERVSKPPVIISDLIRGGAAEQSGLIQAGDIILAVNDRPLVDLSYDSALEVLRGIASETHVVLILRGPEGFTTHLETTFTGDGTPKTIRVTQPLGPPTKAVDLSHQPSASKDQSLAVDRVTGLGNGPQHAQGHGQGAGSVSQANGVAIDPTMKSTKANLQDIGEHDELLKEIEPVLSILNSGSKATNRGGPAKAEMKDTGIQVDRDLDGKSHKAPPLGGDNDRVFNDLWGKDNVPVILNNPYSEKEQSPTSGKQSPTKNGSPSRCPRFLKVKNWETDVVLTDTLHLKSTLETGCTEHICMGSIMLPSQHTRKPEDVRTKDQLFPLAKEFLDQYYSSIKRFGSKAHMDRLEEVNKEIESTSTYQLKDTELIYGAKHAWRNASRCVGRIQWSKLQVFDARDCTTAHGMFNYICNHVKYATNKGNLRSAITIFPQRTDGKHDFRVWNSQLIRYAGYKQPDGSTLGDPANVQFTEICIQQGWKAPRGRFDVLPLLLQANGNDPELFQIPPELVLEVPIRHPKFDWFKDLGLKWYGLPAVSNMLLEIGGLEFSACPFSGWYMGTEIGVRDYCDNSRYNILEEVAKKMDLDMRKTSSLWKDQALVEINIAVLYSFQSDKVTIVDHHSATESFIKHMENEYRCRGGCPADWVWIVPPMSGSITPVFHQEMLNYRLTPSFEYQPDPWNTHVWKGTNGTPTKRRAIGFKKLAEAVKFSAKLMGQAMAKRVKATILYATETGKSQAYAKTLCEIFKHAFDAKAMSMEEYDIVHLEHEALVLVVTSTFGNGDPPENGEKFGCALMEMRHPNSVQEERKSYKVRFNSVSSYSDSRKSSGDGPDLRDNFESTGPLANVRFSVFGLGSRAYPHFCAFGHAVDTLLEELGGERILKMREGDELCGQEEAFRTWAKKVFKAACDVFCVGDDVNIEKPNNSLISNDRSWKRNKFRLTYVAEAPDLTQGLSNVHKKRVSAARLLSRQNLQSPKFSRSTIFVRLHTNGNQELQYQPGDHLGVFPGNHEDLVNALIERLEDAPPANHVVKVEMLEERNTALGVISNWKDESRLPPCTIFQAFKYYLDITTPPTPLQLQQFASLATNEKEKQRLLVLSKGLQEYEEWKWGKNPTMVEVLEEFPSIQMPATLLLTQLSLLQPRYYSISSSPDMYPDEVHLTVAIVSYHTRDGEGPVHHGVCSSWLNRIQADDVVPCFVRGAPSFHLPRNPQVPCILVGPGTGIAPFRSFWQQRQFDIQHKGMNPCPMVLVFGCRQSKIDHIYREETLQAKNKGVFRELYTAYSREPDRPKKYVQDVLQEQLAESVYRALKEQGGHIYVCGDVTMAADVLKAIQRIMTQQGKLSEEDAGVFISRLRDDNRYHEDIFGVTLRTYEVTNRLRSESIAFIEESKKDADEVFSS
# T1 sequence (P78352 whole entry): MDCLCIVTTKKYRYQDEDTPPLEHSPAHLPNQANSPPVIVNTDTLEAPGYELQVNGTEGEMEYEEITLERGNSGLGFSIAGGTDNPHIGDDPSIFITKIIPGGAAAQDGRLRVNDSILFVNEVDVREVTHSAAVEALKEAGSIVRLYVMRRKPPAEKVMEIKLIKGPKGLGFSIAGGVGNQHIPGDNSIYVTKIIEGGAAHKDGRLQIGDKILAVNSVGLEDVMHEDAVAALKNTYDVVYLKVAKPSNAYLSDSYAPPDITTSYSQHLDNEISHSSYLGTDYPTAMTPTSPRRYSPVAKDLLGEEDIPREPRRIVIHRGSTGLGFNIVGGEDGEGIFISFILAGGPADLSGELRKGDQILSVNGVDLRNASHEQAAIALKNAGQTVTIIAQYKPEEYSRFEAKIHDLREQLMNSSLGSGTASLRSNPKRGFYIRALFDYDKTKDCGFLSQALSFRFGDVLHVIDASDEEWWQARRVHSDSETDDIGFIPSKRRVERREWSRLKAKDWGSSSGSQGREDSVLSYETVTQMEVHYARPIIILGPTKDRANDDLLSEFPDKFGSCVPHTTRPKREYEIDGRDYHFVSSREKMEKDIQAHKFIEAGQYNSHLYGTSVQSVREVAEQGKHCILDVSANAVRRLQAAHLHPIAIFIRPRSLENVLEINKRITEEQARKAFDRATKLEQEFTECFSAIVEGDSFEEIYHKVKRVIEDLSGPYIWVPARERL
# Assay: uncoupling of GFP-PSD95 from His-nNOS/Fe-MOF, magnetic separation, fluorescence
# Type: binding
# Conditions: not given
# Description: uncoupling of GFP-PSD95 from His-nNOS/Fe-MOF, magnetic separation, fluorescence on PSD95-nNOS (GFP-PSD95 coupled to His-nNOS on magnetic Fe-MOF)
row,IC50,Compound
1,1800 ± 151 µM,"O=C(O)c1ccc(NCc2cc(Cl)cc(Cl)c2O)cc1O [ZL006, 4-(3,5-Dichloro-2-hydroxy-benzylamino)-2-hydroxybenzoic acid, reference compound]"
2,104 ± 1 µM,"O=C(O)[C@H]1O[C@@H](Oc2cc3oc(-c4ccccc4)cc(=O)c3c(O)c2O)[C@H](O)[C@@H](O)[C@@H]1O [compound 1, Baicalin]"
3,144 ± 22 µM,"O=c1cc(-c2ccccc2)oc2cc(O)c(O)c(O)c12 [compound 2, Baicalein]"
4,> 1800 µM,"COc1cc(/C=C/c2cc(O)cc(O)c2)ccc1O [compound 6, Isorhapontigenin]"
5,> 1800 µM,"COc1cc2c[n+](C)c3c4cc5c(cc4ccc3c2cc1OC)OCO5 [compound 7, Nitidine chloride]"
6,> 1800 µM,"COc1cc(O)c2c(c1)C(=O)c1cc(C)cc(O)c1C2=O [compound 9, Physcion]"

row,Compound,IC50
1,"COc1ccc2c(c[n+](C)c3c4cc5c(cc4ccc23)OCO5)c1OC [compound 8, Chelerythrine]",> 1800 µM

# Same assay, conditions: PBS pH 7.4, 0.1% DMSO, 4 °C, 5 h; immobilized nNOS; inhibition of PSD95-nNOS coupling, binding chain not told
row,Compound,IC50
1,"Oc1cc(O)cc(/C=C/c2c(O)cccc2O)c1 [compound 3, Gnetol]",492 ± 63 µM
